In patent US20260266848A1, “COMPOSITIONS AND METHODS FOR DIAGNOSING AND TREATING DYSTONIA” (Duke University, priority 2023, published 2026):

Key:
DYT-TOR1A MEF EVs = assay: Quantitative LC-MS/MS proteomics of EVs from drug-treated DYT-TOR1A MEF cultures (ritonavir, salubrinal); format: cell-based, mouse; set-up: key to RTV Corrective Direction / RTV Corrective Direction, Grwd1 / RTV Corrective Direction, Srrm2 / RTV Corrective Direction, Rbm17 / RTV Corrective Direction, Dcaf8 / RTV Corrective Direction, Edil3 / RTV Corrective Direction, Timp3 / RTV Corrective Direction, Heatr3 / RTV Corrective Direction, Brd4 / RTV Corrective Direction, P3h4 / RTV Corrective Direction, Pacsin3 / RTV Corrective Direction, Naa50 / RTV Corrective Direction, Lpar6 / RTV Corrective Direction, Ndrg1 / RTV Corrective Direction, Kntc1 / RTV Corrective Direction, Cdk11b / RTV Corrective Direction, Sumo1 / RTV Corrective Direction, Lsm4 / RTV Corrective Direction, Hmga2 / RTV Corrective Direction, Cstf1 / RTV Corrective Direction, Tes / RTV Corrective Direction, Sbno1 / RTV Corrective Direction, Unc119b / RTV Corrective Direction, Cfdp1 / RTV Corrective Direction, Sec61b: YES = protein abundance effect opposite to DYT/WT; settings: EV protein abundance; for RTV Corrective Direction: DYT + RTV (ritonavir) vs DYT, direction compared with DYT/WT; for DYT + RTV/DYT Cohen's d: ritonavir (RTV)-treated DYT vs DYT
WT MEF EVs = assay: Quantitative LC-MS/MS proteomics of EVs from ISRIB-treated WT MEF cultures; format: cell-based, mouse; set-up: key to ISRIB and DYT Parallel Direction / ISRIB and DYT Parallel Direction, Ctdsp1 / ISRIB and DYT Parallel Direction, Pcdh19 / ISRIB and DYT Parallel Direction, Tspan7 / ISRIB and DYT Parallel Direction, Myo1e / ISRIB and DYT Parallel Direction, Plpp3 / ISRIB and DYT Parallel Direction, Sh3bp4 / ISRIB and DYT Parallel Direction, Dnajc7 / ISRIB and DYT Parallel Direction, Drg1 / ISRIB and DYT Parallel Direction, Maea: YES = protein abundance effect similar to DYT/WT; settings: EV protein abundance; for WT + ISRIB/WT Cohen's d: ISRIB-treated WT vs WT; for ISRIB and DYT Parallel Direction: WT + ISRIB vs WT, direction compared with DYT/WT

Row | Substance | RTV Corrective Direction (DYT-TOR1A MEF EVs) | DYT + RTV/DYT Cohen's d (DYT-TOR1A MEF EVs) | WT + ISRIB/WT Cohen's d (WT MEF EVs) | ISRIB and DYT Parallel Direction (WT MEF EVs)
1 | Col10a1 | YES | −3.41 | 0.36 | YES
2 | Cope | YES | 7.24 | −1.30 | YES
3 | Cul3 | YES | 2.36 | −0.66 | YES
4 | Ddx39b | YES | 13.79 | −1.12 | YES
5 | Dhx9 | YES | 6.23 | −1.27 | YES
